According to US10660877B2 (BRISTOL-MYERS SQUIBB COMPANY, priority 2016, dated 2020):
Where two headings read alike, the source gives them in different places.

Experiments:
[1] = target: human TLR9 (Homo sapiens (Human), UniProt Q9NR96); experiment: TLR9 inhibition reporter assay (HEK-Blue cells, SEAP reporter, ODN2006 stimulation);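 further: compounds tested over 0.05 nM to 50 µM, 22 h incubation, inhibition taken as SEAP signal drop from agonist plus DMSO wells toward a known inhibitor control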
[2] = target: human TLR7 (Homo sapiens (Human), UniProt Q9NYK1); experiment: TLR7 inhibition reporter assay (HEK-Blue cells, SEAP reporter, gardiquimod stimulation); assay type: cell-based
Sequence of human TLR7 (Q9NYK1 27-1049): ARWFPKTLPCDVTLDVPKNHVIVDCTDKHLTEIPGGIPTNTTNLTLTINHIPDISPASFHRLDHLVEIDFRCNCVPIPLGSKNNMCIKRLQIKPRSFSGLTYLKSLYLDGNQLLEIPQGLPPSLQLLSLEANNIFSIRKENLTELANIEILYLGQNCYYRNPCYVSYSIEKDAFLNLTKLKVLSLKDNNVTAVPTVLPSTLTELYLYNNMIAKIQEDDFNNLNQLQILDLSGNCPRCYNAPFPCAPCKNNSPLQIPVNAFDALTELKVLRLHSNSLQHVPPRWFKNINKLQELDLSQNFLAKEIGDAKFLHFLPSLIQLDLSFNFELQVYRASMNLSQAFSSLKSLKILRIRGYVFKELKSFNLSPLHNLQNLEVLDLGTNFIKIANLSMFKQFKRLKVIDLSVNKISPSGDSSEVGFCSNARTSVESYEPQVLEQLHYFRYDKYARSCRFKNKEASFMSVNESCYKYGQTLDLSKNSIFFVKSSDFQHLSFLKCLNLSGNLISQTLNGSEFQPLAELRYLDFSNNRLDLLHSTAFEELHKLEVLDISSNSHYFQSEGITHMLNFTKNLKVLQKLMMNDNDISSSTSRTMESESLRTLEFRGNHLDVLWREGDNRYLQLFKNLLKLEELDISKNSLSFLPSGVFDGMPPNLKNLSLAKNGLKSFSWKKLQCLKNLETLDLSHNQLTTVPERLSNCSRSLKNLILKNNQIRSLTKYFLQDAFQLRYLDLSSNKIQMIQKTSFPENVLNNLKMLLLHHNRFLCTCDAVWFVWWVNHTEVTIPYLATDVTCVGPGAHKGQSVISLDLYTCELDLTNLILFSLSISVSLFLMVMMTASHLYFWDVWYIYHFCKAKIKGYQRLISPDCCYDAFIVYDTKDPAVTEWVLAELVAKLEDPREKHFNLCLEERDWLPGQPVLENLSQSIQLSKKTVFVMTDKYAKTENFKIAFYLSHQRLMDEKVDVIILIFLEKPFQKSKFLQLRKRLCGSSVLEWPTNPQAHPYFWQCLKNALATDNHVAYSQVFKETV

[3] = target: human TLR8 (Homo sapiens (Human), UniProt Q9NR97); experiment: TLR8 inhibition reporter assay (HEK-Blue cells, SEAP reporter, R848 stimulation);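 further: compounds tested from 0.05 nM to 50 µM, 22 h at 37 °C, SEAP measured with HEK-Blue Detection, inhibition relative to agonist plus DMSO versus a known inhibitor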
Sequence of human TLR8 (Q9NR97 27-1041): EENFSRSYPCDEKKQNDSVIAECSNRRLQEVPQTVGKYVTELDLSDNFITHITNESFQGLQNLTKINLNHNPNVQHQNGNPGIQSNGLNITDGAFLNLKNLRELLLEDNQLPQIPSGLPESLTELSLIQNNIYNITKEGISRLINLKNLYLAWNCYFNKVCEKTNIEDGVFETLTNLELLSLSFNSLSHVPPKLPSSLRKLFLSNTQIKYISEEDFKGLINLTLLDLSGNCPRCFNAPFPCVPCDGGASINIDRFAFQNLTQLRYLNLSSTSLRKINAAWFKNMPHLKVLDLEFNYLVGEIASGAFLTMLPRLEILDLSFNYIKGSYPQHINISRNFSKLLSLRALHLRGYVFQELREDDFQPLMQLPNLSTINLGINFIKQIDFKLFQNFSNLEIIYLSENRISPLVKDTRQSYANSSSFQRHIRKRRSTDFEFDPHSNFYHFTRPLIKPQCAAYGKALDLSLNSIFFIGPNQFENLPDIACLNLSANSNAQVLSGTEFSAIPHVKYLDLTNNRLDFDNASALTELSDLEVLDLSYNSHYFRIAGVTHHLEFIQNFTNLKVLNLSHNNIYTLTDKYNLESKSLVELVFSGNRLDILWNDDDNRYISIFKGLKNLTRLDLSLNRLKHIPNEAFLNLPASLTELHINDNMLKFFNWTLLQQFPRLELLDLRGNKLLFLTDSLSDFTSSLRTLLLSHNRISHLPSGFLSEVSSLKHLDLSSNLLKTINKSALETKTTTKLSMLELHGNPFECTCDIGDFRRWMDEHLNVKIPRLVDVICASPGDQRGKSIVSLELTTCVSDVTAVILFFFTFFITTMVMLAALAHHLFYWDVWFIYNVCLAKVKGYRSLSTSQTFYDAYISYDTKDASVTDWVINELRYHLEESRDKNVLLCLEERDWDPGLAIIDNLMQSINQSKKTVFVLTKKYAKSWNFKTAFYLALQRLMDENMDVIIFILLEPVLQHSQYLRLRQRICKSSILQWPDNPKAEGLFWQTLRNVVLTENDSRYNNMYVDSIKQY

[4] = read-out: TLR9 IC50, HEK-Blue cells overexpressing human TLR9, ODN2006 5 nM
[5] = HEK-Blue cells overexpressing human TLR7, gardiquimod 7.5 μM
[6] = read-out: TLR8 IC50, HEK-Blue cells overexpressing human TLR8, R848 15.9 μM
[7] = read-out: TLR9 IC50, HEK-Blue cells, ODN2006 5 nM
[8] = HEK-Blue cells, gardiquimod 7.5 μM
[9] = read-out: TLR8 IC50, HEK-Blue cells, R848 15.9 μM

Sequence of human TLR9 (Q9NR96 26-1032): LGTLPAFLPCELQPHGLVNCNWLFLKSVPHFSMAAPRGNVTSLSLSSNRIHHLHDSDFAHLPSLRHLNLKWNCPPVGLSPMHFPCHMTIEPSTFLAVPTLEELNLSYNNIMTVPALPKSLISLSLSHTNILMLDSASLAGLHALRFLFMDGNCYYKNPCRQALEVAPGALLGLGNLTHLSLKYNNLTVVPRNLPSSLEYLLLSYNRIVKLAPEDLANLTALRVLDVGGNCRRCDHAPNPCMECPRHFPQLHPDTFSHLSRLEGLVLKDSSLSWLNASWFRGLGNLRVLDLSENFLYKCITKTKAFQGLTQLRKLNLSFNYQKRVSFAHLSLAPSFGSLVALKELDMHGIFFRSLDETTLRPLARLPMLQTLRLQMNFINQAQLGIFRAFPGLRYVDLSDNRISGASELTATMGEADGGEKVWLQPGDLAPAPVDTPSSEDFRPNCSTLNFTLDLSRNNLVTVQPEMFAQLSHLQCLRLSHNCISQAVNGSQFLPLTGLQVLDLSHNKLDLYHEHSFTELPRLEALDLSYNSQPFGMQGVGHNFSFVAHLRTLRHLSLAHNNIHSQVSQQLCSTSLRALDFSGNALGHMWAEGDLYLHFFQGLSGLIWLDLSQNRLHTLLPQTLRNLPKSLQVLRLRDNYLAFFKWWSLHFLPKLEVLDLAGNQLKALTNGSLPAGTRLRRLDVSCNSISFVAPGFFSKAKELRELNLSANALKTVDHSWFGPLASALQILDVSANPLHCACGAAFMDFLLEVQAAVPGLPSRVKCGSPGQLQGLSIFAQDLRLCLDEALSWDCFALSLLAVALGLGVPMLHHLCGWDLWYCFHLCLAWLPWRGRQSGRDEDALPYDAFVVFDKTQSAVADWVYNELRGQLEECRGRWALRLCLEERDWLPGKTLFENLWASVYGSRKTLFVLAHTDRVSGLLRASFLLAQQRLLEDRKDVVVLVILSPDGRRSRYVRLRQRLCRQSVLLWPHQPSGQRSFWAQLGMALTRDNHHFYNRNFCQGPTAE

SMILES | IC50 [1, 4] [µM] | IC50 [2, 5] [µM] | IC50 [3, 6] [µM] | IC50 [1, 7] [µM] | IC50 [2, 8] [µM] | IC50 [3, 9] [µM]
Cc1cc(-c2[nH]c3ccc(C4CCN(CCOc5ccccc5)CC4)cc3c2C(C)C)ccn1 [Example 663, 3-isopropyl-2-(2-methylpyridin-4-yl)-5-(1-(2-phenoxyethyl)piperidin-4-yl)-1H-indole] | 1.1 | 0.112 | 0.0312 | – | – | –
CCc1c(-c2ccnc(C)c2)[nH]c2ccc(C3CCN(CC(=O)O)CC3)cc12 [Example 876, 2-(4-(3-ethyl-2-(2-methylpyridin-4-yl)-1H-indol-5-yl)piperidin-1-yl)acetic acid] | – | – | – | 46.7 | 0.958 | 1.94
Cc1cc(-c2[nH]c3ccc(C4CCN(C(=O)CCN(C)C)CC4)cc3c2C(C)C)ccn1 [Example 578, 3-(dimethylamino)-1-(4-(3-isopropyl-2-(2-methylpyridin-4-yl)-1H-indol-5-yl)piperidin-1-yl)propan-1-one] | 0.722 | 0.0071 | 0.0057 | – | – | –
Cc1cc(-c2[nH]c3ccc(C4CCNCC4)cc3c2C(C)C)cc(N)n1 [Example 12, 4-(3-isopropyl-5-(piperidin-4-yl)-1H-indol-2-yl)-6-methylpyridin-2-amine] | 0.362 | 0.0198 | 0.0397 | – | – | –
Cc1cc(-c2[nH]c3ccc(C4CCN(C(=O)Cn5cnnn5)CC4)cc3c2C(C)C)cc(C)n1 [Example 165, 1-(4-(2-(2,6-dimethylpyridin-4-yl)-3-isopropyl-1H-indol-5-yl)piperidin-1-yl)-2-(1H-tetrazol-1-yl)ethan-1-one] | 17.2 | 0.0133 | 0.0661 | – | – | –
Cc1cc(-c2[nH]c3ccc(C4CCNCC4)cc3c2C2CC2)cc(C)n1 [Example 93, 3-cyclopropyl-2-(2,6-dimethylpyridin-4-yl)-5-(piperidin-4-yl)-1H-indole] | 0.122 | 0.0033 | 0.0092 | – | – | –
CC(=O)N(C)CCC(=O)N1CCC(c2ccc3[nH]c(-c4cc(C)nc(C)c4)c(C(C)C)c3c2)CC1 [Example 134, N-(3-(4-(2-(2,6-dimethylpyridin-4-yl)-3-isopropyl-1H-indol-5-yl)piperidin-1-yl)-3-oxopropyl)-N-methylacetamide] | 34.6 | 0.0114 | 0.0903 | – | – | –
Cc1cc(-c2[nH]c3ccc(C4CCN(C(=O)CN5CCOC[C@@H]5CO)CC4)cc3c2C(C)C)cc(C)n1 [Example 405, (S)-1-(4-(2-(2,6-dimethylpyridin-4-yl)-3-isopropyl-1H-indol-5-yl)piperidin-1-yl)-2-(3-(hydroxymethyl)morpholino)ethan-1-one] | 0.527 | 0.0021 | 0.0129 | – | – | –
Cc1cc(-c2[nH]c3ccc(C4CCN(CC(=O)NCC(F)(F)F)CC4)cc3c2C(C)C)cc(C)n1 [Example 214, 2-(4-(2-(2,6-dimethylpyridin-4-yl)-3-isopropyl-1H-indol-5-yl)piperidin-1-yl)-N-(2,2,2-trifluoroethyl)acetamide] | 1.22 | 0.0062 | 0.0128 | – | – | –
CCC(CC)C(=O)N1CCC(c2ccc3[nH]c(-c4cc(C)nc(C)c4)c(C(C)C)c3c2)CC1 [Example 104, 1-(4-(2-(2,6-dimethylpyridin-4-yl)-3-isopropyl-1H-indol-5-yl)piperidin-1-yl)-2-ethylbutan-1-one] | 12 | 0.0149 | 0.249 | – | – | –
Cc1cc(-c2[nH]c3ccc(C4CCN(CC(=O)NCC(C)O)CC4)cc3c2C(C)C)cc(C)n1 (stereo not drawn) [Example 260, 2-(4-(2-(2,6-dimethylpyridin-4-yl)-3-isopropyl-1H-indol-5-yl)piperidin-1-yl)-N-(2-hydroxypropyl) acetamide] | 0.379 | 0.0015 | 0.0051 | – | – | –
Cc1cc(-c2[nH]c3ccc(C4CCN(CC5CCN(C(C)C)CC5)CC4)c(F)c3c2C(C)C)ccn1 [Example 874, 4-fluoro-3-isopropyl-5-(1-((1-isopropylpiperidin-4-yl)methyl)piperidin-4-yl)-2-(2-methylpyridin-4-yl)-1H-indole] | – | – | – | 0.445 | 0.0154 | 0.0336
Cc1cc(-c2[nH]c3ccc(C4CCN(C(=O)CN(C)CCO)CC4)cc3c2C(C)C)cc(C)n1 [Example 420, 1-(4-(2-(2,6-dimethylpyridin-4-yl)-3-isopropyl-1H-indol-5-yl)piperidin-1-yl)-2-((2-hydroxyethyl)(methyl)amino)ethan-1-one] | 0.632 | 0.0015 | 0.0099 | – | – | –
Cc1cc(-c2[nH]c3ccc(C4CCN(C5CCCOC5)CC4)cc3c2C(C)C)c(C)cn1 (stereo not drawn) [Example 726, 2-(2,5-dimethylpyridin-4-yl)-3-isopropyl-5-(1-(tetrahydro-2H-pyran-3-yl)piperidin-4-yl)-1H-indole] | 1.45 | 0.0142 | 0.0011 | – | – | –
CCN(C)C(=O)CN1CCC(c2ccc3[nH]c(-c4cc(C)nc(C)c4)c(C(C)C)c3c2)CC1 [Example 246, 2-(4-(2-(2,6-dimethylpyridin-4-yl)-3-isopropyl-1H-indol-5-yl)piperidin-1-yl)-N-ethyl-N-methylacetamide] | 0.663 | 0.0026 | 0.0053 | – | – | –
Cc1cc(-c2[nH]c3ccc(C4CCN(C(=O)Cn5ccc(C(F)(F)F)n5)CC4)cc3c2C(C)C)cc(C)n1 [Example 156, 1-(4-(2-(2,6-dimethylpyridin-4-yl)-3-isopropyl-1H-indol-5-yl)piperidin-1-yl)-2-(3-(trifluoromethyl)-1H-pyrazol-1-yl)ethan-1-one] | 18.7 | 0.0299 | 0.187 | – | – | –
CC(=O)Nc1cnc(C)cc1-c1[nH]c2ccc(C3CCNCC3)cc2c1C(C)C [Example 34, N-(4-(3-isopropyl-5-(piperidin-4-yl)-1H-indol-2-yl)-6-methylpyridin-3-yl)acetamide] | 4.61 | 1.27 | 0.16 | – | – | –
Cc1cc(-c2[nH]c3ccc(C4CCN(Cc5nncn5C)CC4)cc3c2C(C)C)c(F)cn1 [Example 737, 2-(5-fluoro-2-methylpyridin-4-yl)-3-isopropyl-5-(1-((4-methyl-4H-1,2,4-triazol-3-yl)methyl)piperidin-4-yl)-1H-indole] | > 50 | 0.0145 | 0.0051 | – | – | –
Cc1cc(-c2[nH]c3ccc(C4CCN(C(=O)CN5CC6CCC(C5)O6)CC4)cc3c2C(C)C)cc(C)n1 [Example 389, 2-(8-oxa-3-azabicyclo[3.2.1]octan-3-yl)-1-(4-(2-(2,6-dimethylpyridin-4-yl)-3-isopropyl-1H-indol-5-yl)piperidin-1-yl)ethan-1-one] | 0.88 | 0.0103 | 0.0313 | – | – | –
Cc1cc(-c2[nH]c3ccc(C4CCN(C5CCCNC5O)CC4)cc3c2C(C)C)ccn1 (stereo not drawn) [Example 702, 4-(3-isopropyl-2-(2-methylpyridin-4-yl)-1H-indol-5-yl)-[1,3′-bipiperidin]-2′-ol] | 0.432 | 0.0144 | 0.0029 | – | – | –
CCc1c(-c2ccnc(C)c2)[nH]c2ccc(C3CCN(C(=O)C4CCN(C)CC4)CC3)cc12 [Example 593, (4-(3-ethyl-2-(2-methylpyridin-4-yl)-1H-indol-5-yl)piperidin-1-yl)(1-methylpiperidin-4-yl)methanone] | 0.513 | 0.043 | 0.0174 | – | – | –
